Each structure is given as a SMILES string.

The test system of test [1] is Ramos B cells with beta-lactamase reporter gene under control of an NFAT response element. The test is described as follows: NFAT-bla RA1 Reporter Assay (Ramos-NFAT). It is filed as cell-based, human. As to conditions: Homo sapiens, Ramos, read-out: IMM Ramos-NFAT (IC50). As for the experimental part: NFAT-bla RA1 Reporter Assay
Ramos B cells containing a stable integration of a beta-lactamase reporter gene under the control of an NFAT response element (NFAT-bla RA1, Invitrogen, K1434) at a density of 100×10^3 cells/well were incubated with test compounds at 37° C. for 30 min prior to stimulation with F(ab′)2 anti-human IgM (Jackson ImmunoResearch, 109-006-129) at 2.5 μg/ml for 4.5 hrs at 37° C. After stimulation, LiveBLAzer-FRET B/G substrate (CCF2/AM, or CCF4/AM, Invitrogen) was added to each well and incubated for 90 min at room temperature in the dark. Assay plates were read on an LJL Analyst, with raw emission values subtracted from a media-only blank containing substrate in assay media (no cells). The ratios of 460 nm/530 nm emission (405 nm excitation) were used to calculate the amount of stimulation.

The target in another test is T1, human recombinant Btk (Homo sapiens, UniProt Q06187).
T1 construct: purchased Invitrogen Corporation
The test is described as follows: Human Recombinant Btk Enzyme Assay (LLE_BTK). In kind it is biochemical. As to the method: Human Recombinant Btk Enzyme Assay
To V-bottom 384-well plates were added test compounds, human recombinant Btk (1 nM, Invitrogen Corporation), fluoresceinated peptide (1.5 μM), ATP (20 μM), and assay buffer (20 mM HEPES pH 7.4, 10 mM MgCl2, 0.015% Brij35 and 4 mM DTT in 1.6% DMSO), with a final volume of 30 μL. After incubating at room temperature for 60 min, the reaction was terminated by adding 45 μl of 35 mM EDTA to each sample. The reaction mixture was analyzed on the Caliper LABCHIP® 3000 (Caliper, Hopkinton, Mass.) by electrophoretic separation of the fluorescent substrate and phosphorylated product. Inhibition data were calculated by comparison to no enzyme control reactions for 100% inhibition and no inhibitor controls for 0% inhibition. Dose response curves were generated to determine the concentration required inhibiting 50% of kinase activity (IC50). Compounds were dissolved at 10 mM in dimethylsulfoxide (DMSO) and evaluated at eleven concentrations.
Using this assay, the following IC50 values derived by non-linear regression analysis were determined and compared to those values of certain compounds in U.S. Publication No. 2007/078136 and U.S. Publication No. 2008/045536.

T1 sequence (Q06187 whole entry): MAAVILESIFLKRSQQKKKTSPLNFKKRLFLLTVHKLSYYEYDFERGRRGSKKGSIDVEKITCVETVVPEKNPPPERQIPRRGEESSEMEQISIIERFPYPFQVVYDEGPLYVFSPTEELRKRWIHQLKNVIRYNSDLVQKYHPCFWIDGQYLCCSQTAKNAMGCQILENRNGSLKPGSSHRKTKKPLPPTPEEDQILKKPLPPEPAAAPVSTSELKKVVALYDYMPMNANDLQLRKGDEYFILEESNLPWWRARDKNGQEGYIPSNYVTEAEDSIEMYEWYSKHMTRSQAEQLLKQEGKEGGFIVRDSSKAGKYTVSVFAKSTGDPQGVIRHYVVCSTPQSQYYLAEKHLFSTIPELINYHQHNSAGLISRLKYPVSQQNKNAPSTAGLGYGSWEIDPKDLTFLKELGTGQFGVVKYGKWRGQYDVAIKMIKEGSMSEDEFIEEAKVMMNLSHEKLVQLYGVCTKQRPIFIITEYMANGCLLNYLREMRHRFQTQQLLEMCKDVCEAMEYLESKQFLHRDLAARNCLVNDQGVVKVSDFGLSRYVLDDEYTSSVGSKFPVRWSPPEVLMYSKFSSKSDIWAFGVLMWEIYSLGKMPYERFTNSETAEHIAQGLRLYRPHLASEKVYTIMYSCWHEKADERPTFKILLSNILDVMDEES

Turning to `CN1CCCC(c2ccc(Nc3nc(N4CCC[C@@H](NC(=O)Nc5nncs5)C4)c(F)cc3C(N)=O)cc2)C1` (stereo partly shown) [Example 558], the IC50 – broadly, the midpoint of a concentration-inhibition curve – in test [1] is 380 nM; at human recombinant Btk, 2 nM.

In the case of `CN1CCC(c2ccc(Nc3nc(N4CCC[C@@H](NC(=O)c5ccc(F)cc5)C4)c(F)cc3C(N)=O)cc2)CC1` [Example 491], the IC50 in test [1] was found to be 200 nM; at human recombinant Btk, 2 nM.

Take `CC(C)(C)c1ccc(C(=O)Nc2cccc(-c3ccc(C(N)=O)c(Nc4ccc(C(=O)N5CCOCC5)cc4)n3)c2)cc1` [Example 37]: on human recombinant Btk, the concentration for half-maximal inhibition (IC50) was 1400 nM.

For the molecule `NC(=O)c1cc(F)c(N2CCC[C@@H](NC(=O)Nc3nccs3)C2)nc1Nc1ccc(CCN2CCC2)cc1` [Example 547], the IC50 was 50 nM in test [1] and 1 nM at human recombinant Btk.

Regarding `NC(=O)c1ccc(N2CCC[C@@H](N)C2)nc1Nc1ccccc1` [Example 299], the IC50 on human recombinant Btk came to 1500 nM.

For the molecule `CN1CCN(c2ccc(Nc3nc(N4CCC[C@@H](NC(=O)c5ccccc5)C4)c(F)cc3C(N)=O)cc2F)CC1` [Example 479], the IC50 in test [1] was 70 nM; at human recombinant Btk it was 1 nM.

On to `CN1CCN(c2ccc(Nc3nc(N4CCC[C@@H](N5CCCC5=O)C4)c(F)cc3C(N)=O)cc2)CC1` [Example 419], for which the figures for the IC50 (in test [1]; at human recombinant Btk) were 180 nM and 1 nM, respectively.

Turning to `CC(C)(C)NCCc1ccc(Nc2nc(N3CCC[C@@H](NC(=O)Nc4nccs4)C3)c(F)cc2C(N)=O)cc1` [Example 550], the IC50 in test [1] worked out at 120 nM; on human recombinant Btk, 2 nM.

`CN(C(=O)Nc1ccccc1)c1cccc(Nc2nc(N3CCOCC3)c(F)cc2C(N)=O)c1` [Example 529]: on human recombinant Btk, the IC50 stood at 1000 nM.

`NC(=O)c1cc(F)c(N2CCC[C@@H](NC(=O)c3ccccc3)C2)nc1Nc1ccc(N2CCS(=O)(=O)CC2)cc1` [Example 503]: the IC50 in test [1] was 80 nM; at human recombinant Btk, 7 nM.

Consider `CC(C)(C)c1ccc(NC(=O)[C@@H]2CCCN(c3ccc(C(N)=O)c(Nc4ccc(C(=O)N5CCOCC5)cc4)n3)C2)cc1` [Example 164], for which the IC50 at human recombinant Btk is 2700 nM.

On to `CS(=O)(=O)c1ccc(Nc2nc(N3CCC[C@@H](NC(=O)Nc4nccs4)C3)c(F)cc2C(N)=O)cc1` [Example 546], for which the IC50 in test [1] was determined as 230 nM; at human recombinant Btk, 3 nM.

Turning to `CC(C)(C)OC(=O)N[C@@H]1CCCN(c2ccc(C(N)=O)c(Nc3ccccc3)n2)C1` [Example 295], the half-inhibitory concentration (IC50) on human recombinant Btk is 1700 nM.

Consider `CN1CCCC(c2ccc(Nc3nc(N4CCC[C@@H](NC(=O)Nc5nnc(C(F)(F)F)s5)C4)c(F)cc3C(N)=O)cc2)C1` (stereo partly shown) [Example 559], for which the IC50 in test [1] was determined as 70 nM; on human recombinant Btk, 2 nM.

In the case of `NC(=O)c1ccc(N2CC[C@@H](N)C2)nc1Nc1ccc(C(=O)N2CCOCC2)cc1` [Example 45], the IC50 at human recombinant Btk stood at 2100 nM.

On to `CN(c1cccc(Nc2nc(N3CCOCC3)c(F)cc2C(N)=O)c1)S(=O)(=O)c1cccc2ccccc12` [Example 538], for which the IC50 at human recombinant Btk is 1200 nM.

As to `CC(=O)N1CCc2c(cccc2-c2ccc(C(N)=O)c(Nc3ccc(-c4cnco4)cc3)n2)C1` [Example 347], the IC50 stood at 10000 nM in test [1] and 2000 nM at human recombinant Btk.

On to `Cc1ccc(NC(=O)N[C@@H]2CCCN(c3ccc(C(N)=O)c(Nc4ccccc4)n3)C2)cc1C` [Example 300], for which the half-maximal inhibitory concentration (IC50) on human recombinant Btk worked out at 1300 nM.

As to `Cc1ccc(NC(=O)c2ccc(C(C)(C)C)cc2)cc1-c1ccc(C(N)=O)c(Nc2ccc(C(=O)N3CCOCC3)cc2)n1` [Example 162], the concentration for half-maximal inhibition (IC50) at human recombinant Btk worked out at 1400 nM.

In the case of `NC(=O)c1cc(F)c(N2CCC[C@@H](NC(=O)Nc3nccs3)C2)nc1Nc1ccc(C(=O)N2CCOCC2)cc1` [Example 382], the IC50 worked out at 800 nM in test [1] and 2 nM at human recombinant Btk.

`NC(=O)c1cc(F)c(N2CCC[C@@H](NC(=O)Nc3nccs3)C2)nc1Nc1ccc(CCn2ccnc2)cc1` [Example 548]: the IC50 is 270 nM in test [1] and 2 nM at human recombinant Btk.

In the case of `CN1CCC(c2ccc(Nc3nc(N4CCC[C@@H](NC(=O)Nc5nncs5)C4)c(F)cc3C(N)=O)cc2)CC1` [Example 493], the IC50 amounted to 130 nM in test [1] and 0.7 nM on human recombinant Btk.

Turning to `CS(=O)(=O)Nc1cccc(Nc2nc(-c3ccc(Cl)cc3)ccc2C(N)=O)c1` [Example 375], the IC50 on human recombinant Btk is 1200 nM.

In the case of `CN1CCN(c2ccc(Nc3nc(N4CCCCC4)c(F)cc3C(N)=O)cc2)CC1` [Example 393], the results for the IC50 (in test [1]; on human recombinant Btk) were 120 nM and 20 nM, respectively.

On to `NC(=O)c1cc(F)c(N2CCC[C@@H](NC(=O)Nc3nccs3)C2)nc1Nc1ccc(CCO)cc1` [Example 545], for which the IC50 came to 160 nM in test [1] and 2 nM at human recombinant Btk.

For the molecule `NC(=O)c1ccc(N2CCNCC2)nc1Nc1ccc(C(=O)N2CCOCC2)cc1` [Example 10, 2-(4-(Morpholine-4-carbonyl)phenylamino)-6-(piperazin-1-yl)nicotinamide], the IC50 at human recombinant Btk was determined as 1800 nM.

`NC(=O)c1ccc(N2CCC[C@@H](C(=O)O)C2)nc1Nc1ccc(C(=O)N2CCOCC2)cc1` [Example 165]: the IC50 at human recombinant Btk was determined as 2900 nM.

As for `Cc1ccc(NC(=O)N[C@@H]2CCCN(c3ccc(C(N)=O)c(Nc4ccc(N5CCN(C)CC5)cc4)n3)C2)cc1C` [Example 283], the IC50 in test [1] came out at 120 nM; on human recombinant Btk, 10 nM.

Regarding `NC(=O)c1ccc(NCc2ccccc2)nc1Nc1ccccc1` [Example 298], the IC50 at human recombinant Btk amounted to 12000 nM.

As for `CNC(=O)c1ccc(N2CCC[C@@H](NC(=O)c3ccc(C(C)(C)C)cc3)C2)nc1Nc1ccc(C(=O)N2CCOCC2)cc1` [Example 442], the IC50 on human recombinant Btk is 2600 nM.

With `CN1CCC(C)(c2ccc(Nc3nc(N4CCC[C@@H](NC(=O)Nc5nnc(C(C)(C)C)s5)C4)c(F)cc3C(N)=O)cc2)CC1` [Example 494], the IC50 at human recombinant Btk was found to be 0.6 nM.

In the case of `NC(=O)c1ccc(N2CCC[C@@H](NC(=O)c3cccc(-c4nc5ccccc5[nH]4)c3)C2)nc1Nc1ccc(C(=O)N2CCOCC2)cc1` [Example 263], the figures for the IC50 (in test [1]; at human recombinant Btk) were 5700 nM and 0.9 nM, respectively.

Take `CNc1cccc(Nc2nc(-c3ccc(Cl)cc3)ccc2C(N)=O)c1` [Example 380]: the IC50 at human recombinant Btk was 3200 nM.

`CC(C)(C)OC(=O)N[C@@H]1CCN(c2ccc(C(N)=O)c(Nc3ccc(C(=O)N4CCOCC4)cc3)n2)C1` [Example 44]: the concentration for half-maximal inhibition (IC50) on human recombinant Btk amounted to 750 nM.

As to `CN(c1cccc(Nc2nc(-c3ccc(Cl)cc3)ccc2C(N)=O)c1)S(=O)(=O)c1ccccc1` [Example 381], the IC50 at human recombinant Btk turned out to be 1000 nM.

For `CC(C)(C)OC(=O)c1ccc(Nc2nc(N3CCCCC3)ccc2C(N)=O)cc1` [Example 314], the IC50 at human recombinant Btk worked out at 1800 nM.

For the molecule `NC(=O)c1ccc(N2CCCCC2)nc1Nc1ccc(C(=O)Nc2ccccc2)cc1` [Example 323], at human recombinant Btk, the IC50 is 780 nM.

Regarding `CN(c1cccc(Nc2nc(N3CCOCC3)c(F)cc2C(N)=O)c1)S(=O)(=O)c1ccc(-c2ccccc2)cc1` [Example 537], on human recombinant Btk, the IC50 is 1100 nM.

For `NC(=O)c1cc(F)c(N2CCCCC2)nc1Nc1ccc(F)cc1` [Example 15, 5-Fluoro-2-(4-fluorophenylamino)-6-(piperidin-1-yl)nicotinamide], the IC50 on human recombinant Btk turned out to be 870 nM.

In the case of `CN(c1cccc(Nc2nc(-c3ccc(Cl)cc3)ccc2C(N)=O)c1)S(=O)(=O)Cc1ccccc1` [Example 376], the IC50 at human recombinant Btk was 6900 nM.

In the case of `NC(=O)c1ccc(-c2ccc(Cl)c(C(F)(F)F)c2)nc1Nc1ccc(C(=O)N2CCOCC2)cc1` [Example 143], on human recombinant Btk, the IC50 amounted to 1200 nM.

For `CC(=O)c1ccccc1-c1ccc(C(N)=O)c(Nc2ccc(C(=O)N3CCOCC3)cc2)n1` [Example 132], the IC50 on human recombinant Btk stood at 1000 nM.

For the molecule `N#Cc1ccc(Nc2nc(N3CCC[C@@H](N)C3)ccc2C(N)=O)cc1` [Example 302], on human recombinant Btk, the IC50 was 880 nM.

For `COc1cc(Nc2nc(N3CCC[C@@H](NC(=O)c4ccccc4)C3)c(F)cc2C(N)=O)ccc1OCCNC1CC1` [Example 511], the IC50 on human recombinant Btk was determined as 730 nM.

With `NC(=O)c1ccc(N2CC[C@@H](NC(=O)c3ccc(C(F)(F)F)cc3)C2)nc1Nc1ccc(C(=O)N2CCOCC2)cc1` [Example 50], on human recombinant Btk, the IC50 came out at 740 nM.

Turning to `COc1cccc(Nc2nc(N3CCC[C@@H](NC(=O)Nc4nc(C)cs4)C3)ccc2C(N)=O)c1` [Example 331], the IC50 on human recombinant Btk worked out at 780 nM.

Take `NC(=O)c1cc(F)c(N2CCOCC2)nc1Nc1cccc(CS(=O)(=O)N2CCCC2)c1` [Example 533]: the IC50 at human recombinant Btk was 22000 nM.

On to `NC(=O)c1cc(F)c(N2CCOCC2)nc1Nc1cccc(N(S(=O)(=O)CCCCl)S(=O)(=O)CCCCl)c1` [Example 535], for which, at human recombinant Btk, the IC50 turned out to be 980 nM.

For `CC(C)(C)c1ccc(NC(=O)[C@@H]2CCN(c3ccc(C(N)=O)c(Nc4ccc(C(=O)N5CCOCC5)cc4)n3)C2)cc1` [Example 163], on human recombinant Btk, the IC50 was found to be 1500 nM.

In the case of `Cc1csc(NC(=O)N[C@@H]2CCCN(c3ccc(C(N)=O)c(Nc4ccc(N5CCOCC5)cc4)n3)C2)n1` [Example 337], on human recombinant Btk, the IC50 amounted to 760 nM.

(Values after patent US8586751B2, “Nicotinamide compounds useful as kinase modulators” (Bristol-Myers Squibb Company, priority 2009, dated 2013).)
